We go through 4 molecules from BindingDB's records for PubMed 10087012 (Medical College of Georgia, 1999).

By Ki is commonly meant a dissociation constant, usually derived from enzyme kinetics or from competition with a known ligand.

For the test, the target named is Sigma non-opioid intracellular receptor 1 (Homo sapiens, UniProt Q99720).
Sequence of Sigma non-opioid intracellular receptor 1 (Q99720 whole entry): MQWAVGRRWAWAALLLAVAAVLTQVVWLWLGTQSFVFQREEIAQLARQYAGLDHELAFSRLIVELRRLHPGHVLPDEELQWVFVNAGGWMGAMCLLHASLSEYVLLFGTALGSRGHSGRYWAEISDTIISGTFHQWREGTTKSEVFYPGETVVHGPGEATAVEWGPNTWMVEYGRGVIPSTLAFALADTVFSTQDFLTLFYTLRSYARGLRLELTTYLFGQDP
The molecule `O=c1[nH]c2nccn2c2c1ncn2C1CC(O)C(COP(=O)(O)OP(=O)(O)OP(=O)(O)O)O1` (centres undefined) [CAS_85976-54-1] came in with a Ki of 0.042 µM.

`COc1ccc2c(c1)C13CCCCC1C(C2)N(C)CC3` (centres undefined) [Levomethorpan]: the inhibition constant Ki is 0.521 µM.

On to `CCN(CC)CCOCCOC(=O)C1(c2ccccc2)CCCC1` [SMR000326757], for which the Ki was 0.0104 µM.

In turn, `C#CCN(C)CCCOc1ccc(Cl)cc1Cl` [US8633208, Clorgyline] gave an inhibition constant Ki of 0.0087 µM.
